Measurements reported in patent US10961222B2, “Chemical compound of isocitrate dehydrogenase inhibitor, and application thereof” (NANJING SANHOME PHARMACEUTICAL CO., LTD., priority 2016, dated 2021).
pIC50: −log10 of the molar value.

How the values were obtained:
IDH2-R140Q mutant enzyme = target: T1, IDH2-R140Q mutant enzyme (Homo sapiens, UniProt P48735, R140Q); test: Inhibitory activity of compounds on IDH2-R140Q enzyme in vitro (diaphorase/resazurin fluorescence); format: biochemical; conditions: IDH2-R140Q, pre-incubated 16 h with enzyme and NADPH, reaction 1 h with α-ketoglutarate; read-out: R140Q IC50
T1 construct: purchased BPS 71100-1
T1 sequence (P48735 40-452 R140Q): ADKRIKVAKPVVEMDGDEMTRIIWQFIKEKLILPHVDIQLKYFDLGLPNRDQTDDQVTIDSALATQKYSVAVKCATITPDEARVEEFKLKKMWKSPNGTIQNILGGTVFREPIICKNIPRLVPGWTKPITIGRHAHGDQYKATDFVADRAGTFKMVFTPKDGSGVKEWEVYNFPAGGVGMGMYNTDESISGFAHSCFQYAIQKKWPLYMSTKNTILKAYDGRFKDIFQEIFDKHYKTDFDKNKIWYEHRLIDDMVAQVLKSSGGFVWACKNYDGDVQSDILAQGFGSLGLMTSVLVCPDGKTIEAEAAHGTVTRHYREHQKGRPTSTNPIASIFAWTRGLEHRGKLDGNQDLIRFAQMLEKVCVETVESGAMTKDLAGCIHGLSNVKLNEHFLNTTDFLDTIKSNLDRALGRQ
Description: Instrument: SpectraMax M3 Multi-Mode Microplate Reader, purchased from Molecular Devices.
In a 96-well plate, 40 μL of reaction buffer containing 2× enzyme (IDH2-WT or IDH2-R140Q) and cofactor (NADP or NADPH) was added to each well of the compound group and the DMSO control group, and 40 μL of reaction buffer containing 2× cofactor (NADP or NADPH) was added to each well of the enzyme-free control group.
20 μL of reaction buffer containing 4× compound to be tested was added to each well of the compound group. The compound was pre-formulated into 200× mother liquor with 100% DMSO; in the final reaction system, the concentration of DMSO was 0.5%. 20 μL of reaction buffer containing DMSO was added to each well of the DMSO control group; in the final reaction system, the concentration of DMSO was 0.5%.
The compound was mixed well with the enzyme and cofactor, and pre-incubated at room temperature for 16 h;
20 μL of reaction buffer containing 4× reaction substrate was added to each well. After mixed uniformly, the mixture was reacted at room temperature for 1 h.
3× termination and detection solution (it was prepared with reaction buffer, the final concentration of Diaphorase was 0.015 mg/mL, and the final concentration of Resazurin was 0.03 mM) was prepared. 40 μL of 3× termination and detection solution was added to each well of the enzyme reaction system. After mixed uniformly, the mixture was incubated at room temperature for 10 min;
Fluorescence values of two wells were obtained and averaged and the activity rate (Activity %) was calculated. The calculation formula: Activity %=(Measured data−Subtract background)/(DMSO Control−Subtract background)×100, wherein “Measured data” is fluorescence value of the compound in the pre-incubated wells, “Subtract background” is the fluorescence value of the enzyme-free control wells, and “DMSO Control” is the fluorescence value in the DMSO pre-incubated wells. Data was processed by GraphPad Prism v5.0 software and fitted to obtain IC50.

[1] = target: T2, U87-MG cell line of overexpressed mutant IDH2 (R140Q) (Homo sapiens, UniProt P48735, R140Q); test: Cell activity in vitro: 2-HG in culture supernatant of U87-MG (IDH2-R140Q) cells by LC-MS/MS; format: cell-based; conditions: U87-MG (IDH2-R140Q) cells, 72 hours, 2-HG in supernatant; read-out: IC50 (2-HG remaining compared to untreated)
T2 construct: expressed in transfected cells
T2 sequence (P48735 40-452 R140Q): T1 sequence (P48735 40-452 R140Q)
Description: 1.2 Cells: human glioblastoma cell line U87-MG, purchased from the American Type Culture Collection (ATCC);
Cell recovery: U87-MG (IDH2-R140Q) cells and U87-MG cells were put into a 37° C. water bath, then transferred to 15 mL of pre-warmed medium, centrifuged at 1000 rpm for 5 minutes, and the medium was discarded. The cells were resuspended in 15 mL of fresh medium, transferred to a T75 flask and cultured in a 37° C. incubator with 5% CO2. After 24 hours, the medium was changed to fresh medium.
Cell passage: The above-mentioned recovered cells were transferred to a 50 mL sterile centrifuge tube, centrifuged at 1000 rpm for 5 minutes, and the medium was discarded. The cells were resuspended evenly and counted. The cell density was adjusted appropriately in a 15 mL fresh medium, and then added to T75 culture flask. The culture flask was incubated in an incubator with 5% CO2 at 37° C.
After cells grown to a relatively high density in the culture dish, the cells were trypsinized, resuspended in medium (MEM+10% FBS), and counted. After adjusting the cell concentration, the resuspended cells were seeded in a 96-well plate at 5×10^3 cells per well. After inoculation, the cells were cultured for 24 hours until the cells adhered. The medium were sucked out, and the medium containing gradient concentration of compound was added, 100 μL per well. The cells were further cultured for 72 hours. The s 20 μL of upernatant was taken and put into a 2 mL 96-well sample-processing plate. 480 μL of dilution solution was added and shaken for mixing, and then centrifuged at 4500 rpm for 5 minutes. 200 μL of supernatant was transferred for LC-MS/MS injection analysis.
Column: Shim-pack XR-ODS 30L*2.0; mobile phase: acetonitrile-0.2% ammonia, 5 mM ammonium acetate aqueous solution; column temperature: 30° C.; flow rate: 0.4 mL/min; gradient elution conditions are as follows: […]
Atmospheric […] chemical ionization (APCI) was used. Source parameters was set as follows: IonSpray Voltage/IS-4500V; auxiliary gas 1 (Ion Source Gas 1/GS 1, N2), 55Arb; auxiliary gas 2 (Ion Source Gas 2, N2), 55Arb; auxiliary gas heating temperature (Temperature/TEM), 500° C.; curtain gas/CUR, 25Arb; collision gas/CAD, N2, 8 Pa.
Multi-ion reaction monitoring (MRM) in negative ion mode (Negative) was used. […] The internal standard (IS) MRM parameters: parent ion (Q 1 Mass), 178.0 Da; daughter ion (Q3 Mass), 149.0 Da; Decluster Potential (DP), −51V; collision voltage (Collision Energy/CE), −17 eV
By determining the 2-HG content in the cell culture supernatant of each well using LC-MS/MS, the mutant enzyme activity (2-HG remaining compared to untreated %) was calculated. The calculation formula: 2-HG remaining compared to untreated %=(Measured 2-HG level—U87-MG control 2-HG level)/(Untreated 2-HG level—U87-MG control 2-HG level)×100. […] Data were processed by GraphPad Prism v5.0 software and fitted to obtain IC50.

[2] = test system: U87-MG (IDH2-R140Q) subcutaneous xenograft tumor; test: Subcutaneous xenograft tumor caused by U87-MG (IDH2-R140Q) mutant cells in vivo: intratumor 2-HG; design: species or system BALB/c nude mice
Source text: 1.2 Animals: BALB/c nude mice, 6-7 weeks old, female, 18-22 g, purchased from Nanjing Jinlaichang Company.
U87-MG (IDH2-R140Q) cells and U87-MG cells (wild type) were expanded, and cells in logarithmic growth phase were used for tumor inoculation in vivo. 16 mice were inoculated subcutaneously into the right lower back of the body at an amount of 2×10^6 cells/mouse (the volume ratio of cell suspension to Matrigel was 1:0.8).
The non-mutation control group was nude mice inoculated with U87-MG cells, and the test compound groups and vehicle control group were nude mice inoculated with U87-MG (IDH2-R140Q) cells.
Each group was intragastrically administered with a corresponding concentration of the compound solution, the administration volume was 100 μL/10 g body weight, and the control group was administered the same volume of blank vehicle.
After 10 days of administration, the mice were sacrificed. The tumors were exfoliated, homogenized, and the 2-HG content in the tumor was examined.
The 2-HG concentration in the homogenate of each animal tumor in each group was determined by LC-MS/MS. The percentage (2-HG %) was calculated; the calculation formula is as follows 2-HG %=(2-HG concentration of administration group tumor−2-HG concentration of U87-MG control group tumor)/(2-HG concentration of U87−MG(IDH2-R140Q) control group tumor−2-HG concentration of U87-MG control group tumor)×100%.

Compound | pIC50 (IDH2-R140Q mutant enzyme) | pIC50 [1] | Intratumor 2-HG(%) after 10 days of administration ([2]; 6.25 mg/kg, intragastric, 10 days, mean, relative to U87-MG (IDH2-R140Q) control group) [%] | ability of lowering 2-HG level compared with positive compound AG-221 ([2]; U87-MG (IDH2-R140Q) subcutaneous xenograft model)
CC(C)(C)ONc1nc(Nc2ccnc(C(F)(F)F)c2)nc(-c2cccc(C(F)(F)F)n2)n1 [Example 28, 4-(Tert-Butoxyamino)-6-(6-(trifluoromethyl)pyridin-2-yl)-N-(2-(trifluoromethyl)pyridin-4-yl)-1,3,5-triazin-2-amine] | 7.91 | 7.60 | – | –
CC(Oc1nc(Nc2ccnc(C(F)(F)F)c2)nc(-c2cccc(C(F)(F)F)n2)n1)C(F)(F)F (stereo not drawn) [Example 44, 4-(6-(Trifluoromethyl)pyridin-2-yl)-N-(2-(trifluoromethyl)pyridin-4-yl)-6-((1,1,1-trifluoroisopropyl-2-yl)oxy)-1,3,5-triazin-2-amine] | 8.06 | 8.29 | – | –
CC(C)(O)CCc1nc(Nc2ccnc(C(F)(F)F)c2)nc(-c2cccc(C(F)(F)F)n2)n1 [Example 41, 2-Methyl-4-(4-(6-(trifluoromethyl)pyridin-2-yl)-6-((2-(trifluoromethyl)pyridin-4-yl)amino)-1,3,5-triazin-2-yl)-3-butan-2-ol] | 7.79 | 8.00 | – | –
CC(C)(O)/C=C/c1nc(Nc2ccnc(C(F)(F)F)c2)nc(-c2cccc(C(F)(F)F)n2)n1 [Example 40, 2-Methyl-4-(4-(6-(trifluoromethyl)pyridin-2-yl)-6-((2-(trifluoromethyl)pyridin-4-yl)amino)-1,3,5-triazin-2-yl)-3-buten-2-ol] | – | 7.48 | – | –
CC(C)ONc1nc(Nc2ccnc(C(F)(F)F)c2)nc(-c2cccc(C(F)(F)F)n2)n1 [Example 27] | 7.90 | 7.51 | – | –
O[C@]1(C(F)(F)F)CCN(c2nc(Nc3ccnc(C(F)(F)F)c3)nc(-c3cccc(C(F)(F)F)n3)n2)C1 [Example 22A, (R)-4-(3-trifluoromethyl-3-hydroxypyrrolidin-1-yl)-6-(6-(trifluoromethyl)pyridin-2-yl)-N-(2-(trifluoromethyl)pyridin-4-yl)-1,3,5-triazin-2-amine] | – | – | – | substantially superior
FC(F)(F)COc1nc(Nc2ccnc(C(F)(F)F)c2)nc(-c2cccc(C(F)(F)F)n2)n1 [Example 43, 4-(2,2,2-Trifluoroethoxy)-6-(6-(trifluoromethyl)pyridin-2-yl)-N-(2-(trifluoromethyl)pyridin-4-yl)-1,3,5-triazin-2-amine] | 8.24 | 8.02 | – | –
FC1(F)CN(c2nc(Nc3ccnc(C(F)(F)F)c3)nc(-c3cccc(C(F)(F)F)n3)n2)C1 [Example 35, 4-(3,3-Difluoroazetidin-1-yl)-6-(6-(trifluoromethyl)pyridin-2-yl)-N-(2-(trifluoromethyl)pyridin-4-yl)-1,3,5-triazin-2-amine] | 8.08 | 8.01 | – | –

More lines, in order of rising pIC50 (IDH2-R140Q mutant enzyme), values ahead:

pIC50 (IDH2-R140Q mutant enzyme) | pIC50 [1] | Compound | Intratumor 2-HG(%) after 10 days of administration ([2]; 6.25 mg/kg, intragastric, 10 days, mean, relative to U87-MG (IDH2-R140Q) control group) [%] | ability of lowering 2-HG level compared with positive compound AG-221 ([2]; U87-MG (IDH2-R140Q) subcutaneous xenograft model)
7.52 | – | O[C@H]1CN(c2nc(Nc3ccnc(C(F)(F)F)c3)nc(-c3cccc(C(F)(F)F)n3)n2)C[C@@H]1F [Example 23, 4-((3S,4S)-3-hydroxy-4-fluoropyrrolidin-1-yl)-6-(6-(trifluoromethyl)pyridin-2-yl)-N-(2-(trifluoromethyl)pyridin-4-yl)-1,3,5-triazin-2-amine] | 67 | –
7.53 | 7.99 | CC1(O)CN(c2nc(Nc3ccnc(C(F)(F)F)c3)nc(-c3cccc(C(F)(F)F)n3)n2)C1 [Example 33] | – | –
7.58 | 7.44 | OC1CN(c2nc(Nc3ccnc(C(F)(F)F)c3)nc(-c3cccc(C(F)(F)F)n3)n2)C1 [Example 32] | – | –
7.60 | 7.23 | OC1(C(F)(F)F)CCN(c2nc(Nc3ccnc(C(F)(F)F)c3)nc(-c3cccc(C(F)(F)F)n3)n2)CC1 [Example 38, 4-(Trifluoromethyl)-1-(4-(6-(trifluoromethyl)pyridin-2-yl)-6-((2-(trifluoromethyl)pyridin-4-yl)amino)-1,3,5-triazin-2-yl)piperidin-4-ol] | – | –
7.67 | 7.42 | CCN(CC(C)(C)O)c1nc(Nc2ccnc(C(F)(F)F)c2)nc(-c2cccc(C(F)(F)F)n2)n1 [Example 31, 1-(Ethyl(4-(6-(trifluoromethyl)pyridin-2-yl)-6-((2-(trifluoromethyl)pyridin-4-yl)amino)-1,3,5-triazin-2-yl)amino)-2-methylpropan-2-ol] | – | –
7.82 | 7.68 | FC(F)(F)c1cc(Nc2nc(-c3cccc(C(F)(F)F)n3)nc(N3CCOCC3)n2)ccn1 [Example 4, 4-Morpholinyl-6-(6-(trifluoromethyl)pyridin-2-yl)-N-(2-(trifluoromethyl)pyridin-4-yl)-1,3,5-triazin-2-amine] | – | –
8.24 | 7.77 | CN(C)Nc1nc(Nc2ccnc(C(F)(F)F)c2)nc(-c2cccc(C(F)(F)F)n2)n1 [Example 29] | – | –
8.29 | 8.09 | CC(C)Oc1nc(Nc2ccnc(C(F)(F)F)c2)nc(-c2cccc(C(F)(F)F)n2)n1 [Example 42, 4-Isopropoxy-6-(6-(trifluoromethyl)pyridin-2-yl)-N-(2-(trifluoromethyl)pyridin-4-yl)-1,3,5-triazin-2-amine] | – | –
